Laboratory results from patent publication US9274128B2, “Transcriptional repression leading to parkinson's disease” (priority 2010, dated 2016).
Peptide text beside a SMILES is read from it. * marks the point of attachment. Cbz = O=C(OCc1ccccc1)*

System: proteasome
Assay: PARIS steady state levels in SH-SY5Y cells treated with proteasome inhibitor (immunoblot)
Type: cell-based, human
Conditions: for PARIS steady state level: 10 μM MG-132 vs DMSO control, normalized to β-actin
Method: Human neuroblastoma SH-SY5Y cells (ATCC, Manassas, Va.) were grown in DMEM containing 10% FBS and antibiotics in a humidified 5% CO2/95% air atmosphere at 37° C. For transient transfection, cells were transfected with indicated amounts of target vector using Lipofectamine Plus (Invitrogen), according to manufacturer's instructions. For co-immunoprecipitation from cell cultures, SH-SY5Y cells were transfected with 2 μg of each plasmid, unless otherwise indicated. For the ubiquitination assay, SH-SY5Y cells were transiently transfected with 2 μg of pRK5-Myc-tagged parkin, Myc-tagged parkin (C431F, G430D, R275W, and Q311 X) pCMV-FLAG-PARIS, and 2 μg of pMT123-HA-ubiquitin plasmids for 48 hours. For the luciferase assay SH-SY5Y cells were transiently transfected with pCMV-empty vector or pCMV-FLAG-PARIS with either wild type or Q311X parkin, or pGL3-Basic, pGL3-PGC-1α promoter-Luciferase, or pGL3-PGC-1α promoter deletion mutant (a gift from Akyoshi Fukamizu, University of Tsukuba, Japan) (Daitoku et al., 2003) for firefly Luciferase assay and 0.1 μg pRL-TK vector (Promega) for Renilla luciferase control.
The tissues including nine different organs, eight different brain regions from C57/BL6 mouse, human brain, and mouse brain were homogenized in lysis buffer [10 mM Tris-HCl, pH 7.4, 150 mM NaCl, 5 mM EDTA, 0.5% Nonidet P-40, 10 mM Na-β-glycerophosphate, […] I and II (Sigma), and Complete Protease Inhibitor Mixture (Roche)], using a Diax 900 homogenizer. After homogenization, samples were rotated at 4° C. for 30 min for complete lysis, then the homogenate was centrifuged at 52,000 rpm for 20 min, and the resulting fractions were collected. Protein levels were quantified using the BCA kit (Pierce) with BSA standards and analyzed by immunoblot. Immunoblotting was performed with an antibody of interest and was performed with chemiluminescence (Pierce). The densitometric analyses of the bands were performed using ImageJ (NIH, http://rsb.info.nih.gov/ij/). Data are expressed as mean±S.E.M. The results were evaluated for statistical significance by applying the unpaired two-tailed Student's t-test or Student-Newman-Keuls. Differences were considered significant when p<0.05.

**Q.** With `CC(C)C[C@@H](C=O)NC(=O)[C@H](CC(C)C)NC(=O)[C@H](CC(C)C)NC(=O)OCc1ccccc1` [MG132] (Cbz-Leu-Leu-Leu-aldehyde) as the molecule, how does the “PARIS steady state level” value read?
**A.** increased approximately two to three fold

**Q.** And the “PARIS steady state level” value (listed as MG-132)?
**A.** increases PARIS steady state levels

**Q.** What about the “Parkin-mediated degradation of FLAG-PARIS” value (MYC-parkin to FLAG-PARIS 4 to 1, 10 μM MG-132) of the same molecule?
**A.** blocked

**Q.** What about the “Parkin-mediated degradation of FLAG-PARIS” value (MYC-parkin to FLAG-PARIS 4 to 1, 10 μM MG-132, listed as MG-132) of the same molecule?
**A.** prevents the degradation of FLAG-PARIS
